In US20220296536A1, “PAIN MANAGEMENT METHODOLOGY” (priority 2019, published 2022):
Where two headings read alike, the source gives them in different places.

Tests used:
pain in a patient [1] = assay: earlier pharmaceutical treatment of Patient A's pain; format: in vivo, human; settings: terminal prostate cancer, before use of the method
From the text: Patient A was a person having terminal prostate cancer. Patient A was suffering a high level of pain, for which pharmaceutical treatment, even morphine, had become ineffective.

pain in a patient [2] = system: pain in a patient
Protocol: In each of the examples, below, the method of the invention was used: the patient was aurally isolated in a quiet room, being the waiting room or vestibule to an operating theatre with only the deliverer present during the aural isolation period. The patient was exposed to the repetitive, positive message delivered orally by the deliverer. The chosen period was between 20 and 30 minutes. The deliverer repeated the message constantly during the chosen period. The message was: ‘When I wake up, I will have no pain’.
At the conclusion of the chosen period, the patient was administered propofol and became unconscious.

[3] = Example 5, Patient B, hip replacement

Row | SMILES | effect of pharmaceutical treatment on high level of pain (pain in a patient [1]) | pain after surgery (pain in a patient [2]; Example 1, Patient A, terminal prostate cancer, surgery for incontinence problem, from regaining consciousness until three weeks later) | pain (pain in a patient [2]; Example 2, Patient B, bleeding on the brain, skull drilled to drain blood) | pain post-surgery (pain in a patient [2]; Example 3, Patient B, cataract surgery) | post-operative pain (pain in a patient [2]; Example 4, Patient B, radical endoscopic sinus surgery) | pain post-surgery (pain in a patient [2]; [3]) | recovery (pain in a patient [2]; [3]) | time to being ambulatory (pain in a patient [2]; Example 5, Patient B, hip replacement, 7 days bed rest normally expected) | pain after surgery (pain in a patient [2]; Example 6, Patient B, painful infection within left shoulder, surgery) | pain post-surgery (pain in a patient [2]; Example 7, Patient B, osteomyelitis in right hip, stripping of veins and skin graft) | pain post-surgery (pain in a patient [2]; Example 8, Patient B, open-heart surgery to replace aortic valve, three surgeries) | pain post-surgery (pain in a patient [2]; Example 9, Patient C, hip replacement) | pain post-surgery (pain in a patient [2]; Example 10, Patient D, radical hysterectomy) | need for pharmaceutical pain relief after use of the method (pain in a patient [2]; all patients of Examples 1-10, propofol given after 20-30 min aural isolation with message) | recovery from surgery (pain in a patient [2]; all patients of the examples, when surgery was used)
1 | CN1CC[C@]23c4c5ccc(O)c4O[C@H]2[C@@H](O)C=C[C@H]3[C@H]1C5 [morphine] | ineffective |  |  |  |  |  |  |  |  |  |  |  |  |  | 
2 | CC(C)c1cccc(C(C)C)c1O [propofol, 2,6-diisopropylphenol] |  | free of pain | experienced no pain | experienced no pain post-surgery | experienced no post-operative pain | no pain post-surgery | accelerated recovery | ambulatory within one hour | pain-free | no pain post-surgery | no pain post-surgery each time | no pain post-surgery | experienced no pain post-surgery | None of the patients in the examples below required pharmaceutical pain relief | All experienced accelerated recovery from surgery
